Reference: ChEMBL document CHEMBL1649076, “Discovery of 5-chloro-N2-[(1S)-1-(5-fluoropyrimidin-2-yl)ethyl]-N4-(5-methyl-1H-pyrazol-3-yl)pyrimidine-2,4-diamine (AZD1480) as a novel inhibitor of the Jak/Stat pathway” (J Med Chem, 2011)
Active and inactive are the calls of the source. The calls are words filed in the database; no cut-off is given here.

Experiments:
[1] = target: T1, Signal transducer and activator of transcription 5A (Homo sapiens) (UniProt P42229); conditions: HEL, 0.3 uM
T1 sequence (whole entry): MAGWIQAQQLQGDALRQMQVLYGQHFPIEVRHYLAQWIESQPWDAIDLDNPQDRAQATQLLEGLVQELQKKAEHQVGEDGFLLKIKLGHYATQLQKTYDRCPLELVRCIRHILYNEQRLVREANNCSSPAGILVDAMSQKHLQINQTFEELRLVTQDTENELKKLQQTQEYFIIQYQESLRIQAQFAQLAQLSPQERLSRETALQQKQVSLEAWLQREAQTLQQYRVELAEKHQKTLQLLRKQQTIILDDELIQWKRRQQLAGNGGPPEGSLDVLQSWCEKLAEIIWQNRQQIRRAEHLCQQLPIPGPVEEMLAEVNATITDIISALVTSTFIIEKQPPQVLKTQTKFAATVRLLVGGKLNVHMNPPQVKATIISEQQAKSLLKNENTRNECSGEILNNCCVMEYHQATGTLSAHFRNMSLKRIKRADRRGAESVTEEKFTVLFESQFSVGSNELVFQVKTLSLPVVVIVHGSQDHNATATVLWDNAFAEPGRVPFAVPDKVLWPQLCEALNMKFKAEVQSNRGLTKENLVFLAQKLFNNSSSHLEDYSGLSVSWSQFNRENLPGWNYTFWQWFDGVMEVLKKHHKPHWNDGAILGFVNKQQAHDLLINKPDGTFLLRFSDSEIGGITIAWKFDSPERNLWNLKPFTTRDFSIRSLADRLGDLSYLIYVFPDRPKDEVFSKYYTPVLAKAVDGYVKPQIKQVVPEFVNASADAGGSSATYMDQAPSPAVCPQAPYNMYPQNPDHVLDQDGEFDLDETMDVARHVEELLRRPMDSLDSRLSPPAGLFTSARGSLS
Description: Inhibition of Stat5 phosphorylation in human HEL cells at 0.3 uM after 5 mins by Western blotting

[2] = target: Signal transducer and activator of transcription 3 (Homo sapiens) (UniProt P40763); conditions: HEL, 0.3 uM
Signal transducer and activator of transcription 3 (Homo sapiens), sequence (P40763 whole entry): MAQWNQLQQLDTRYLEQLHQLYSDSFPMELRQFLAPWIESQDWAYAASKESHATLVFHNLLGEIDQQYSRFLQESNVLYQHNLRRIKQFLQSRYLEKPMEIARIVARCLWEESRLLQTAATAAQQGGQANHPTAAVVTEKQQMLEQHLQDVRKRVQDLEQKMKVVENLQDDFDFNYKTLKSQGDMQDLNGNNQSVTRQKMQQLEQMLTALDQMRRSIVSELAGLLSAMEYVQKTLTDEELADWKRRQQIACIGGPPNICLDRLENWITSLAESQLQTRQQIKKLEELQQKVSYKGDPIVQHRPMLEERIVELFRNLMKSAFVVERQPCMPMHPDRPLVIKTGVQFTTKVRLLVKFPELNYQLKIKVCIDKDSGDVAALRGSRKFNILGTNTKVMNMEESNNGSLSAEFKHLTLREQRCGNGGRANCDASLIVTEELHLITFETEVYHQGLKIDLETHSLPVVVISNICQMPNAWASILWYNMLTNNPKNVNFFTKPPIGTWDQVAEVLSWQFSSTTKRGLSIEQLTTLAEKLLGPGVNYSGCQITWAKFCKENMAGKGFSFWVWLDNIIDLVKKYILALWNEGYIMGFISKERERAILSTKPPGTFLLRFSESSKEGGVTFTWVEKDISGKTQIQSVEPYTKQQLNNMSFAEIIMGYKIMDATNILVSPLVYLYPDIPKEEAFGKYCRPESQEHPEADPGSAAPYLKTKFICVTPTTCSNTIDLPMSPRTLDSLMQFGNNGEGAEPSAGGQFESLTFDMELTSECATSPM
Description: Inhibition of Stat3 phosphorylation in human HEL cells at 0.3 uM after 5 mins by Western blotting

Mus musculus [3] = assay: Antitumor activity against mouse BA/F3 cells expressing Tel-JAK2 xenografted in po dosed NCr mouse assessed as reduction of phosphorylated Stat5 level in spleen by Western blotting; assay type: functional, organism-based; conditions: BaF3
Mus musculus [4] = assay: Antitumor activity against mouse BA/F3 cells expressing Tel-JAK2 xenografted in NCr mouse assessed as reduction of phosphorylated Stat5 level in spleen at 10 mg/kg, po after 12 hrs by Western blotting; assay type: functional, organism-based; set-up: dose 10 mg/kg; conditions: BaF3
SW-620 = assay: Cell cycle arrest in human SW620 cells assessed as accumulation at G2/M phase at 3.3 uM after 24 hrs by flow cytometry; assay type: functional, cell-based
Mus musculus [5] = assay: Antitumor activity against mouse BA/F3 cells expressing Tel-JAK2 xenografted in NCr mouse assessed as reduction of phosphorylated Stat5 level in spleen at 30 mg/kg, po after 12 hrs by Western blotting; assay type: functional, organism-based; set-up: dose 30 mg/kg; conditions: BaF3
BaF3 = assay: Antitumor activity against mouse BA/F3 cells expressing Tel-JAK2-luc xenografted in NCr mouse assessed as reduction of bioluminescent signal at 50 mg/kg, po bid measured on day 9 post-tumor cell implantation relative to control; assay type: functional

Question: For Cc1cc(Nc2nc(N[C@@H](C)c3ncc(F)cn3)ncc2Cl)[nH]n1, which inhibition [1] is on record?
Answer: Active

Question: And the inhibition [2]?
Answer: Active

Question: And the Activity (Mus musculus [3])?
Answer: Dose-dependent effect

Question: What about the Activity (Mus musculus [4]) of the same molecule?
Answer: inactive

Question: And the Activity (SW-620)?
Answer: Active

Question: And the Activity (Mus musculus [5])?
Answer: Active

Question: And the Activity (BaF3)?
Answer: Dose-dependent effect
